Results as given in patent publication US7030133B2, “Inhibitors of formation of advanced glycation endproducts (AGEs)” (City of Hope, priority 1999, dated 2006).
Blank lines part the entries; values can stand above or below the molecule they belong to.

Key:
[1] = system: hemoglobin (HbAlC formation); experiment: Hemoglobin-δ-Gluconolactone (δ-Glu) assay (early stage glycation, HbAlC formation in whole blood); assay type: cell-based, human; conditions: 1 millimole/L compound, 50 millimoles/L δ-Glu, whole blood from normal volunteers, 16 hours at 37° C.
Description: The δ-Glu assay is a specific method for investigation of inhibitors of the early stage of glycation. Evaluation of early glycation products (Amadori) formation on hemoglobin (HbAlC) is performed by incubating red blood cells with an oxidized form of glucose in the presence and the absence of the inhibitor compound followed by determination of HbAlC in the test versus the control (Rahbar and Nadler., 1999). […] By contrast, glucose requires weeks for an equivalent reaction to occur. We have used this finding to devise an assay method to measure early stage glycation of hemoglobin (Amadori product) and an assay to evaluate the ability of an inhibitor to inhibit HbAlC formation. Briefly, fresh blood was drawn in potassium-EDTA and prepared for incubation within 30 minutes of collection by mixing 200 μL of blood with 40 μL of either phosphate buffered-saline (PBS), pH 7.4, alone, PBS containing 50 millimoles/L δ-Glu (Sigma), or PBS containing 50 millimoles/L δ-Glu plus 1 millimole/L inhibitor. After incubation for 16 hours at 37° C., the percentage of glycated hemoglobin present was determined. The percentage of glycated Hb (HbAlC) was determined using a dedicated ion-exchange HPLC system (BIORAD DIAMAT). Blood samples were analyzed in triplicate. The % inhibition of HbAlC formation by the compound was calculated according to the following formula: ((B−C)/(B−A))×100 where A is HbAlC concentration in the baseline control tube not treated with δ-Glu, B is the HbAlC concentration in blood incubated with δ-Glu, C is the HbAlC content of the test tube treated both with δ-Glu and the inhibitor compound.
The amount of (HbAlC) formation using δ-Glu treated whole blood from normal volunteers using 1 millimole/L of the compounds was calculated. Various inhibitors (compounds LR103-LR115) show different levels of HbAlC depending on their inhibitory potencies.

BSA = experiment: BSA-Glucose assay (glucose-mediated development of fluorescence of BSA); assay type: biochemical; conditions: BSA 50 mg/mL, 800 mM glucose, 7 days at 37° C., fluorescence 330/410 nm; compound concentration not stated
Description: This test is used to evaluate the ability of the inhibitors to inhibit glucose-mediated development of fluorescence of BSA (Ikeda et al., 1996). Triplicate samples of BSA (fraction V, essentially fatty acid free, low endotoxin) from Sigma 50 mg/mL and 800 mM glucose (144 mg/mL) in […] phosphate buffer pH 7.4 containing NaN3 0.2 g/L was incubated under aseptic conditions at 37° C. for 7 days in the presence or absence of various concentrations of the compounds. After 7 days of incubation each sample was examined for the development of specific fluorescence (excitation, 330 nm; emission, 410 nm). The % inhibition of AGE formation in the test sample versus control was calculated for each inhibitor compound. Aminoguanidine (50 mM) was used as a positive control.
This method assays for inhibitors of late glycation and AGE formation (post-Amadori).

[2] = N-Acetyl-Glycyl-Lysine Methyl Ester (G.K. peptide)-Ribose assay; assay type: biochemical; conditions: 24 hours at 37° C.; for Percent Inhibition in the G.K.-Ribose Assay: 1 millimole/L compound, fluorescence 330/415 nm
Description: Evaluation of the late glycation products (AGEs), and AGE-inhibition by the new inhibitor compounds was tested by incubation of G.K. peptide in ribose in the presence or the absence of the agent, followed by determination of chromophores generated in the course of glycation and AGE formation through determination of their specific fluorescence. The Nagaraj et al. (1996) method used to evaluate the ability of the compounds of the present invention to inhibit the crosslinking of N-acetylglycyl-lysine methyl ester in the presence of ribose was as follows: Stock Solutions: • 0.5 M sodium phosphate buffer pH 7.4 containing NaN3 0.2 g/L • GK peptide (Sigma) 80 mg/mL in 0.5 M sodium phosphate buffer pH 7.4 • Ribose 800 mM (120 mg/mL) in 0.5 M phosphate buffer Triplicate samples of equal volumes (0.1 mL) of the 3 stock solutions were mixed together, filtered through a 0.2 micron filter (Coming) and incubated under aseptic conditions for 24 hours at 37° C. The inhibitor compounds were added to a final concentration of 1 millimole/L. At the end of the incubation period, samples were analyzed for their specific fluorescence (excitation, 330 nm; emission, 415 nm). The % inhibition by different concentrations of inhibitor was calculated as described above. Aminoguanidine was used at 50 mM as a positive control.

[3] = Inhibition of copper-catalyzed autooxidation of ascorbic acid (copper-chelating activity); assay type: physicochemical; conditions: read-out: IC50, concentration that inhibited the rate of ascorbic acid oxidation by 50% (copper-chelating activity), FIGS. 3 and 4
Description: This assay was performed according to Price et al. (2001). The kinetics of oxidation of ascorbic acid (AA) at the rate of decrease in absorbance at 265 nm was measured. For studies with AGE inhibitors, the ascorbic acid was added to initiate the reaction. Aliquots were removed at 0, 15, 30, 45, and 60 minutes and transferred to autoinjector vials containing DPTA. Samples were analyzed by reverse phase HPLC, (Waters 2690 Millenium 32 Separator Module), equipped with an auto-injector using Xterra™ RP18 column (250×4.6 mm, 5 μm). Solvents and gradient were all used as described in Price et al. (2001). The concentration of each inhibitor compound that inhibited the rate of AA oxidation by 50% was calculated using Prism (Graph Pad-San Diego).

Molecule: 4,4′-bis [(methyleneoxyethyleneamino)phenoxy]isobutyric acid [LR112]
Percent Inhibition of HbAlC formation in the δ-Glu Assay [1]: 43.2% | Percent Inhibition in the BSA-Glucose Assay (BSA): 44.7% | Percent Inhibition in the G.K.-Ribose Assay [2]: 21%

Molecule: 4-[(3,5-dichlorophenyureido)phenoxyisobutyrylamido]-2-hydroxybenzene-4-carboxylic acid [LR114]
Percent Inhibition of HbAlC formation in the δ-Glu Assay [1]: 45.4% | Percent Inhibition in the BSA-Glucose Assay (BSA): 22.7% | Percent Inhibition in the G.K.-Ribose Assay [2]: 7.2%

Molecule: N=C(N)NN [AG, aminoguanidine, reference compound]
Percent Inhibition in the G.K.-Ribose Assay (positive control) ([2]; Aminoguanidine 50 mM): 67%

IC50 [3]: ~75 µM
Molecule: CC(C)(Oc1ccc(N(Cc2ccc(Cl)cc2)C(=O)Nc2ccc(Cl)c(Cl)c2)cc1)C(=O)O [LR103, 1-[(4-chlorobenzyl)-3-(3,4-dichlorophenylureido)]-4-phenoxyisobutyric acid]
Percent Inhibition of HbAlC formation in the δ-Glu Assay [1]: 43.2% | Percent Inhibition in the BSA-Glucose Assay (BSA): 4% | Percent Inhibition in the G.K.-Ribose Assay [2]: 14%

IC50 [3]: ~100 µM
Molecule: CC(C)(Oc1ccc(NC(=O)Nc2ccc(F)c(Cl)c2)cc1)C(=O)Nc1ccccc1C(=O)O [LR104, 4-(4-fluoro-3-chlorophenylurido)phenoxyisobutyrylamidophenyl-2-carboxylic acid]
Percent Inhibition of HbAlC formation in the δ-Glu Assay [1]: 47.7% | Percent Inhibition in the BSA-Glucose Assay (BSA): 18.4% | Percent Inhibition in the G.K.-Ribose Assay [2]: 0%

Molecule: CC(C)(Oc1ccc(N(Cc2c(F)cccc2Cl)C(=O)Nc2ccc(Cl)c(Cl)c2)cc1)C(=O)O [LR105, 1[(2-fluoro-6-chlorobenzyl)-3-(3,4-dichlorophenyureido)]-4-phenoxyisobutyric acid]
Percent Inhibition of HbAlC formation in the δ-Glu Assay [1]: 38.6% | Percent Inhibition in the BSA-Glucose Assay (BSA): 21.5% | Percent Inhibition in the G.K.-Ribose Assay [2]: 12%

Molecule: CC(C)(Oc1ccc(NCc2ccc(Cl)cc2)cc1)C(=O)O [LR106, 4-(4-chlorobenzylaminophenoxyisobutyric)acid]
Percent Inhibition of HbAlC formation in the δ-Glu Assay [1]: 40.9% | Percent Inhibition in the BSA-Glucose Assay (BSA): 14.4% | Percent Inhibition in the G.K.-Ribose Assay [2]: 10.5%

Molecule: CC(C)(Oc1ccc(NC(=O)Nc2ccc(NC(=O)Nc3ccc(OC(C)(C)C(=O)O)cc3)c(Cl)c2)cc1)C(=O)O [LR107, 2-chlorobenzene-1,4-bis(4-ureidophenoxyisobutyric acid)]
Percent Inhibition of HbAlC formation in the δ-Glu Assay [1]: 43.2% | Percent Inhibition in the BSA-Glucose Assay (BSA): 28.7% | Percent Inhibition in the G.K.-Ribose Assay [2]: 19.5%

Molecule: CC(C)(Oc1ccc(N(Cc2ccc(Cl)cc2)C(=O)Nc2cc(Cl)cc(Cl)c2)cc1)C(=O)O [LR108, 1-[(4-chlorobenzyl)-3-(3,5-dichlorophenyureido)]-4-phenoxyisobutyric acid]
Percent Inhibition of HbAlC formation in the δ-Glu Assay [1]: 2.0% | Percent Inhibition in the BSA-Glucose Assay (BSA): 31.1% | Percent Inhibition in the G.K.-Ribose Assay [2]: 19.7%

Molecule: CC(C)(Oc1ccc(N(Cc2c(F)cccc2Cl)C(=O)Nc2c(F)cccc2Cl)cc1)C(=O)O [LR109, 1-[(2-fluoro-6-chlorobenzyl)-3-(2-fluoro-6-chlorophenylureido)]-4-phenoxyisobutyric acid]
Percent Inhibition of HbAlC formation in the δ-Glu Assay [1]: 56.8% | Percent Inhibition in the BSA-Glucose Assay (BSA): 34.6% | Percent Inhibition in the G.K.-Ribose Assay [2]: 9.5%

Molecule: CC(C)(Oc1ccc(NC(=O)c2c3c(nc4ccccc24)CCCC3)cc1)C(=O)O [LR110, 4-(1,2,3,4-tetrahydroacridine-9-carboxamidophenoxyisobutyric)acid]
Percent Inhibition of HbAlC formation in the δ-Glu Assay [1]: 38.6% | Percent Inhibition in the BSA-Glucose Assay (BSA): 28.5% | Percent Inhibition in the G.K.-Ribose Assay [2]: 11%

Molecule: O=C(O)COc1cccc2cccnc12 [LR111, 8-quinolinoxy acetic acid]
Percent Inhibition of HbAlC formation in the δ-Glu Assay [1]: 38.6% | Percent Inhibition in the BSA-Glucose Assay (BSA): 21.6% | Percent Inhibition in the G.K.-Ribose Assay [2]: 9.7%

Molecule: CC(=O)N[C@@H](Cc1c[nH]cn1)C(=O)Oc1cccc2cccnc12 [LR113, L-8-quinolinolyl(acetylhistidine)]
Percent Inhibition of HbAlC formation in the δ-Glu Assay [1]: 36.3% | Percent Inhibition in the BSA-Glucose Assay (BSA): 21.5% | Percent Inhibition in the G.K.-Ribose Assay [2]: 11%

Molecule: CC(C)(Oc1ccc(NC(=O)Nc2cc(Cl)cc(Cl)c2)cc1)C(=O)N[C@@H](Cc1ccccc1)C(=O)O [LR115, L, α-4-[(3,5-dichlorophenyureido)phenoxyisobutyrylamido]phenylalanine]
Percent Inhibition of HbAlC formation in the δ-Glu Assay [1]: 47.7% | Percent Inhibition in the BSA-Glucose Assay (BSA): 22.3% | Percent Inhibition in the G.K.-Ribose Assay [2]: 0%
